What was measured:
[1] = target: caspase-8 (Homo sapiens, UniProt Q14790); test: Caspase-8 enzyme inhibition (Ki, method of Margolin et al.); type: biochemical; conditions: Ac-DEVD-pNA substrate 80 μM, 37° C., pH 7.5; read-out: Ki C8
Procedure: (§1) Compounds of this invention may be tested using the methods described below.
(§2) In Vitro Assays Enzyme Inhibition
(§3) Ki values for test compounds with caspase-1 and caspase-8 were obtained by the method of Margolin et al. (J. Biol. Chem., 272 pp. 7223-7228 (1997)). Other caspases may be assayed similarly (see, e.g., WO 99/47545). Assays were performed in 10 mM Tris (Sigma Corp, St Louis Mo.) pH 7.5, 1 mM Dithiothreitol (DTT, Research Organic INC, Cleveland, Ohio) and 0.1% CHAPS (Pierce, Rockford Ill.) at 37° C. For caspase-3, a solution of 8% glycerol was added to the assay buffer to improve enzyme stability. A 65 μL aliquot of the assay buffer and 5 μL aliquot of the appropriate dilutions of inhibitor in DMSO where pipetted into a 96 well plate, treated with 10 μL of caspase, then diluted in assay buffer (0.5-40 nM active protein by active site titration). A control containing DMSO but no compound was included for each determination. The plates were then incubated for 15 minutes at 37° C., before addition of the appropriate substrate (20 μL, final concentration 1-4×KM, final assay volume 100 μL) to initiate the reaction. Reaction rates were measured at 37° C. either by following the time dependant increase in absorbance at 405 nm (for the pNA substrates) or in fluorescence (Ex 390, Em 460) (for the AMC substrates). The rates obtained were plotted against inhibitor concentration and the data fit to the Morrison tight-binding equation for competitive inhibitors (Morrison, J. F., Biochem. Biophys. Acta, 185 pp. 269-286 (1969)). The substrates used for the individual assays were as follows:
Caspase-8 Ac-DEVD-pNA (Bachem, King of Prussia, Pa.) (final concentration in assay 80 μM).

[2] = target: T1, caspase-1 (Homo sapiens, UniProt P29466); test: Caspase-1 enzyme inhibition (Ki, method of Margolin et al.); type: biochemical; conditions: Suc-YVAD-pNA substrate 80 μM, 37° C., pH 7.5; read-out: Ki C1
T1 sequence (P29466 120-297 limits assumed): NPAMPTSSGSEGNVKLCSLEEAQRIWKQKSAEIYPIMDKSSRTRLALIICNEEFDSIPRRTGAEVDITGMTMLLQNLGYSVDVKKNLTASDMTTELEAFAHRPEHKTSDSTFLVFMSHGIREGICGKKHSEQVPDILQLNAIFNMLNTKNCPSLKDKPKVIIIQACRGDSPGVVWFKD
T1 sequence (P29466 317-404 limits assumed): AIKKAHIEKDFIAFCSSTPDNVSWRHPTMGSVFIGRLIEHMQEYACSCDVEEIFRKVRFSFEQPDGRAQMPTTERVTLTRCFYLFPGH
Procedure: as §1, §2, §3
Caspase-1 Suc-YVAD-pNA (Bachem, King of Prussia, Pa.) (final concentration in the assay 80 μM);

caspase-8, sequence (Q14790 217-374 limits assumed, species assumed): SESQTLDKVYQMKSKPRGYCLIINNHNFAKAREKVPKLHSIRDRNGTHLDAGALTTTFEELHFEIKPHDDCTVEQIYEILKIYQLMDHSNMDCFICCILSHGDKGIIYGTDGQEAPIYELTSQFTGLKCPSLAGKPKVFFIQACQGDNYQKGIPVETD
caspase-8, sequence (Q14790 385-479 limits assumed, species assumed): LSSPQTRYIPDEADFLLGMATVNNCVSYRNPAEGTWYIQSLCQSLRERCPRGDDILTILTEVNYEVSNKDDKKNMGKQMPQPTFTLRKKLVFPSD

Row | Ki [1] | Ki [2] | SMILES
1 | 10 to 20 nM | < 10 nM | CC(C)[C@H](NC(=O)c1ccccc1OC(F)(F)F)C(=O)N1CCC[C@H]1C(=O)N[C@H](C=O)CC(=O)O [II-5, (S,S,S)-(3S)-({1-[3-Methyl-(2S)-(2-trifluoromethoxy-benzoylamino)-butyryl]-pyrrolidine-(2S)-carbonyl}-amino)-4-oxo-butyric acid]
2 | < 10 nM | < 10 nM | CC(C)(C)[C@H](NC(=O)c1cccc(OCC2CC2)c1Cl)C(=O)N1CCC[C@H]1C(=O)N[C@H](C=O)CC(=O)O [II-38, (S,S,S)-(3S)-({1-[(2S)-(2-Chloro-3-cyclopropylmethoxy-benzoylamino)-3,3-dimethyl-butyryl]-pyrrolidine-(2S)-carbonyl}-amino)-4-oxo-butyric acid]
3 | < 10 nM | < 10 nM | CC(=O)Nc1ccc(C(=O)N[C@H](C(=O)N2C3CC[C@@H](C3)[C@H]2C(=O)N[C@H](C=O)CC(=O)O)C(C)(C)C)c(Cl)c1 (stereo in doubt) [II-57, (3S)-({2-[(2S)-(4-Acetylamino-2-chloro-benzoylamino)-3,3-dimethyl-butyryl]-2-(1S,4R)-aza-bicyclo[2.2.1]heptane-(3S)-carbonyl}-amino)-4-oxo-butyric acid]
4 | 21 to 30 nM | < 10 nM | O=C[C@H](CC(=O)O)NC(=O)[C@@H]1CCCN1C(=O)[C@H](Cc1cscn1)NC(=O)c1ccccc1Cl [II-25, (S,S,S)-(3S)-({1-[(2S)-(2-Chloro-benzoylamino)-3-thiazol-4-yl-propionyl]-pyrrolidine-(2S)-carbonyl}-amino)-4-oxo-butyric acid]
5 | < 10 nM | < 10 nM | CC(C)[C@H](NC(=O)c1ccccc1Cl)C(=O)N1CCC[C@H]1C(=O)N[C@H](C=O)CC(=O)O [II-2, (S,S,S)-(3S)-({1-[(2S)-(2-Chloro-benzoylamino)-3-methyl-butyryl]-pyrrolidine-(2S)-carbonyl}-amino)-4-oxo-butyric acid]
6 | < 10 nM | < 10 nM | CC(C)(C)[C@H](NC(=O)c1cccc(OC(F)(F)F)c1Cl)C(=O)N1CCC[C@H]1C(=O)N[C@H](C=O)CC(=O)O [II-32, (S,S,S)-(3S)-({1-[(2S)-(2-Chloro-3-trifluoromethoxy-benzoylamino)-3,3-dimethyl-butyryl]-pyrrolidine-(2S)-carbonyl}-amino)-4-oxo-butyric acid]
7 | < 10 nM | < 10 nM | COc1cccc(C(=O)N[C@H](C(=O)N2C3CC[C@@H](C3)[C@H]2C(=O)N[C@H](C=O)CC(=O)O)C(C)(C)C)c1F (stereo in doubt) [II-60, (3S)-({2-[(2S)-(2-Fluoro-3-methoxy-benzoylamino)-3,3-dimethyl-butyryl]-2-(1S,4R)-aza-bicyclo[2.2.1]heptane-(3S)-carbonyl}-amino)-4-oxo-butyric acid]
8 | < 10 nM | < 10 nM | CC(C)(C)[C@H](NC(=O)c1cccc(OC2CC2)c1Cl)C(=O)N1CCC[C@H]1C(=O)N[C@H](C=O)CC(=O)O [II-33, (S,S,S)-(3S)-({1-[(2S)-(2-Chloro-3-cyclopropyloxy-benzoylamino)-3,3-dimethyl-butyryl]-pyrrolidine-(2S)-carbonyl}-amino)-4-oxo-butyric acid]
9 | < 10 nM | 10 to 20 nM | CC(C)[C@H](NC(=O)c1c(Cl)cncc1Cl)C(=O)N1CCC[C@H]1C(=O)N[C@H](C=O)CC(=O)O [II-19, (S,S,S)-(3S)-[(1-{(2S)-[(3,5-Dichloro-pyridine-4-carbonyl)-amino]-3-methyl-butyryl}-pyrrolidine-(2S)-carbonyl)-amino]-4-oxo-butyric acid]
10 | < 10 nM | < 10 nM | CC(C)(C)[C@H](NC(=O)c1ccc(O)cc1Cl)C(=O)N1CCC[C@H]1C(=O)N[C@H](C=O)CC(=O)O [II-47, (S,S,S)-(3S)-({1-[(2S)-(2-chloro-4-hydroxy-benzoylamino)-3,3-dimethyl-butyryl]-pyrrolidine-(2S)-carbonyl}-amino)-4-oxo-butyric acid]
11 | < 10 nM | < 10 nM | CC(C)(C)[C@H](NC(=O)c1ccccc1Cl)C(=O)N1CCC[C@H]1C(=O)N[C@H](C=O)CC(=O)O [II-28, (S,S,S)-(3S)-({1-[(2S)-(2-Chloro-benzoylamino)-3,3-dimethyl-butyryl]-pyrrolidine-(2S)-carbonyl}-amino)-4-oxo-butyric acid]
12 | 21 to 30 nM | < 10 nM | CC(C)Oc1ccc(C(=O)N[C@H](C(=O)N2CCC[C@H]2C(=O)N[C@H](C=O)CC(=O)O)C(C)C)c(Cl)c1 [II-46, (S,S,S)-(3S)-({1-[(2S)-(2-chloro-4-isopropyloxy-benzoylamino)-3-methyl-butyryl]-pyrrolidine-(2S)-carbonyl}-amino)-4-oxo-butyric acid]
13 | 21 to 30 nM | < 10 nM | CC(C)[C@H](NC(=O)c1ccc(Cl)cc1Cl)C(=O)N1CCC[C@H]1C(=O)N[C@H](C=O)CC(=O)O [II-11, (S,S,S)-(3S)-({1-[(2S)-(2,4-Dichloro-benzoylamino)-3-methyl-butyryl]-pyrrolidine-(2S)-carbonyl}-amino)-4-oxo-butyric acid]
14 | < 10 nM | < 10 nM | CC(C)C(=O)Nc1cccc(C(=O)N[C@H](C(=O)N2C3CC[C@@H](C3)[C@H]2C(=O)N[C@H](C=O)CC(=O)O)C(C)(C)C)c1Cl (stereo in doubt) [II-59, (3S)-({2-[(2S)-(2-Chloro-3-isobutyrylamino-benzoylamino)-3,3-dimethyl-butyryl]-2-(1S,4R)-aza-bicyclo[2.2.1]heptane-(3S)-carbonyl}-amino)-4-oxo-butyric acid]
15 | < 10 nM | < 10 nM | CC(C)(C)[C@H](NC(=O)c1ccccc1C(F)(F)F)C(=O)N1CCC[C@H]1C(=O)N[C@H](C=O)CC(=O)O [II-29, (S,S,S)-(3S)-({1-[3,3-Dimethyl-(2S)-(2-trifluoromethyl-benzoylamino)-butyryl]-pyrrolidine-(2S)-carbonyl}-amino)-4-oxo-butyric acid]
16 | < 10 nM | < 10 nM | CC(C)C(=O)Nc1ccc(C(=O)N[C@H](C(=O)N2CCC[C@H]2C(=O)N[C@H](C=O)CC(=O)O)C(C)(C)C)c(Cl)c1 [II-49, (S,S,S)-(3S)-({1-[(2S)-(2-chloro-4-isobutyrylamido-benzoylamino)-3,3-dimethyl-butyryl]-pyrrolidine-(2S)-carbonyl}-amino)-4-oxo-butyric acid]
17 | 10 to 20 nM | < 10 nM | CC(C)[C@H](NC(=O)c1cc(Cl)ccc1Cl)C(=O)N1CCC[C@H]1C(=O)N[C@H](C=O)CC(=O)O [II-12, (S,S,S)-(3S)-({1-[(2S)-(2,5-Dichloro-benzoylamino)-3-methyl-butyryl]-pyrrolidine-(2S)-carbonyl}-amino)-4-oxo-butyric acid]
18 | < 10 nM | < 10 nM | CC(C)(C)[C@H](NC(=O)c1ccc(N)c(Cl)c1)C(=O)N1[C@@H]2CC[C@@H](C2)[C@H]1C(=O)N[C@H](C=O)CC(=O)O (stereo in doubt) [II-65, (3S)-({2-[(2S)-(4-Amino-3-chloro-benzoylamino)-3,3-dimethyl-butyryl]-2-(1S,4R)-aza-bicyclo[2.2.1]heptane-(3S)-carbonyl}-amino)-4-oxo-butyric acid]
19 | < 10 nM | < 10 nM | CC(=O)Nc1ccc(C(=O)N[C@H](C(=O)N2CCC[C@H]2C(=O)N[C@H](C=O)CC(=O)O)C(C)C)c(F)c1 [II-45, (S,S,S)-(3S)-({1-[(2S)-(2-fluoro-4-acetamido-benzoylamino)-3-methyl-butyryl]-pyrrolidine-(2S)-carbonyl}-amino)-4-oxo-butyric acid]
20 | < 10 nM | < 10 nM | Cc1c(O)cccc1C(=O)N[C@H](C(=O)N1CCC[C@H]1C(=O)N[C@H](C=O)CC(=O)O)C(C)C [II-6, (S,S,S)-(3S)-({1-[(2S)-(3-Hydroxy-2-methyl-benzoylamino)-3-methyl-butyryl]-pyrrolidine-(2S)-carbonyl}-amino)-4-oxo-butyric acid]
21 | < 10 nM | < 10 nM | CCc1cccc(C(=O)N[C@H](C(=O)N2CCC[C@H]2C(=O)N[C@H](C=O)CC(=O)O)C(C)(C)C)c1Cl [II-36, (S,S,S)-(3S)-({1-[(2S)-(2-Chloro-3-ethyl-benzoylamino)-3,3-dimethyl-butyryl]-pyrrolidine-(2S)-carbonyl}-amino)-4-oxo-butyric acid]
